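Cells were grown in 96-well plates and exposed to each compound for 48 hours at five concentrations; endpoints were interpolated linearly between bracketing concentrations, or set to the highest concentration if not reached. At the GI50, growth is halved. TGI denotes the concentration required for complete inhibition of growth.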

This note sets out measurements from PubChem BioAssay (NCI).

Test systems include CAKI-1 renal; CCRF-CEM leukemia; DU-145 prostate; HOP-92 NSCLC; HS 578T breast; KM12 colon; MDA-MB-231 breast; RXF 393 renal; SK-MEL-28 melanoma; UO-31 renal.
Holding throughout (assay): NCI tumour cell line growth inhibition, 48 h

Turning to `CN1CCc2nc3sc(C(N)=O)c(N)c3c(-c3cccs3)c2C1`, the GI50 is 2.82 µM with CAKI-1 renal; 3.77 µM in the test on CCRF-CEM leukemia; 3.91 µM with DU-145 prostate; 3.16 µM with HOP-92 NSCLC; 3.07 µM with HS 578T breast; 2.7 µM with KM12 colon. Besides, the GI50 was 4.77 µM with MDA-MB-231 breast, 1.11 µM with RXF 393 renal, 2.91 µM in the test on SK-MEL-28 melanoma and 3.47 µM in the test with UO-31 renal. Also, the TGI in the test with CAKI-1 renal was over 100 µM; in the test with CCRF-CEM leukemia, over 100 µM; in the test with DU-145 prostate it was 86.9 µM; in the test with HOP-92 NSCLC, 9.16 µM; in the test on HS 578T breast, 21.7 µM; in the test on KM12 colon, over 100 µM. Moreover, the TGI in the test with MDA-MB-231 breast is over 100 µM; with RXF 393 renal, 3.63 µM; with SK-MEL-28 melanoma, 9.59 µM; in the test with UO-31 renal, over 100 µM.

Regarding `COc1ccc2c(c1)C(=O)c1c-2c(OCCN(C)C)nc2ccccc12`, the GI50 was 1.47 µM in the test on CAKI-1 renal; 0.825 µM in the test with CCRF-CEM leukemia; 2.91 µM in the test on DU-145 prostate; 8.05 µM in the test on HOP-92 NSCLC; 3.57 µM in the test on HS 578T breast; 1.19 µM in the test on KM12 colon. The GI50 in the test on MDA-MB-231 breast was 4.02 µM; in the test with RXF 393 renal, 3.79 µM; in the test with SK-MEL-28 melanoma it was 4.53 µM; with UO-31 renal, 0.962 µM. Moreover, the TGI was found to be 4.14 µM in the test with CAKI-1 renal; 10.4 µM in the test on CCRF-CEM leukemia; 9 µM in the test on DU-145 prostate; 81.8 µM in the test on HOP-92 NSCLC; 12.2 µM in the test on HS 578T breast; 3.28 µM in the test on KM12 colon. The TGI in the test on MDA-MB-231 breast amounted to 20.8 µM; with RXF 393 renal, 15.7 µM; in the test with SK-MEL-28 melanoma, 15.4 µM; in the test with UO-31 renal, 2.76 µM.

For `CCOC(=O)c1cc2c(cc1Cl)SC(=Nc1ccccc1)N(S(=O)(=O)c1ccc(Br)s1)S2(=O)=O`, the GI50 with CAKI-1 renal is 17.5 µM; in the test with CCRF-CEM leukemia it was 4.51 µM; in the test with DU-145 prostate, 19 µM; with HOP-92 NSCLC it was 10.9 µM; in the test on HS 578T breast, 18.7 µM; in the test on KM12 colon it was 17.6 µM. In addition, the GI50 with MDA-MB-231 breast is 14.1 µM; in the test on RXF 393 renal, 2.1 µM; with SK-MEL-28 melanoma, 24.1 µM; in the test on UO-31 renal, 22.1 µM. For the same compound, the TGI in the test on CAKI-1 renal was 32.8 µM; in the test with CCRF-CEM leukemia it was 18.8 µM; in the test with DU-145 prostate, 37 µM; in the test with HOP-92 NSCLC it was 33.6 µM; in the test with HS 578T breast, 49.4 µM; with KM12 colon it was 33.3 µM. Further, the TGI was found to be 30.6 µM in the test on MDA-MB-231 breast, 11.5 µM in the test on RXF 393 renal, 64.5 µM in the test on SK-MEL-28 melanoma and 53.9 µM in the test with UO-31 renal.

As for `c1cc(N2CCN(c3ccc(C4=NCCCN4)cc3)CC2)ccc1C1=NCCCN1`, the GI50 is over 100 µM in the test with CAKI-1 renal; over 61.4 µM with CCRF-CEM leukemia; over 66.6 µM with DU-145 prostate; 73 µM in the test on HOP-92 NSCLC; over 58.7 µM in the test with HS 578T breast; over 42.1 µM in the test on KM12 colon. Also, the GI50 in the test on MDA-MB-231 breast was over 62.6 µM; in the test on RXF 393 renal, over 35.8 µM; in the test on SK-MEL-28 melanoma, over 100 µM; in the test on UO-31 renal it was over 100 µM. Also, the TGI in the test on CAKI-1 renal, with CCRF-CEM leukemia, in the test with DU-145 prostate, in the test with HOP-92 NSCLC, in the test on HS 578T breast and with KM12 colon was over 100 µM in each case. Moreover, the TGI in the test on MDA-MB-231 breast, with RXF 393 renal, in the test with SK-MEL-28 melanoma and with UO-31 renal was over 100 µM throughout.

Consider `O=C(Nc1ccccc1OC(=O)c1ccccc1)c1ccccc1`, for which the GI50 is 5.84 µM with CAKI-1 renal; 5.87 µM with CCRF-CEM leukemia; 23.1 µM with DU-145 prostate; 23.1 µM with HOP-92 NSCLC; 4.72 µM in the test with HS 578T breast; 3.12 µM in the test on KM12 colon. Further, the GI50 is 6.44 µM in the test on MDA-MB-231 breast, 50.9 µM with RXF 393 renal, over 100 µM in the test on SK-MEL-28 melanoma and 13.8 µM with UO-31 renal. The TGI in the test with CAKI-1 renal is 54.4 µM; in the test on CCRF-CEM leukemia, over 100 µM; in the test with DU-145 prostate, 88.7 µM; in the test with HOP-92 NSCLC it was over 100 µM; in the test with HS 578T breast it was over 100 µM; with KM12 colon it was 10.9 µM. The TGI in the test on MDA-MB-231 breast, in the test with RXF 393 renal, with SK-MEL-28 melanoma and with UO-31 renal was over 100 µM in each case.

Take `NNc1nnc(-c2nnc(NN)o2)o1`: the TGI with CAKI-1 renal, in the test with CCRF-CEM leukemia, in the test on DU-145 prostate, with HOP-92 NSCLC, in the test on HS 578T breast and with KM12 colon was over 10 µM in each case. Also, the TGI in the test with MDA-MB-231 breast, with RXF 393 renal, in the test with SK-MEL-28 melanoma and in the test with UO-31 renal was over 10 µM in each case.

Take `Oc1cccc2c1NCCC2`: the GI50 was 2.24 µM in the test with CAKI-1 renal; 0.219 µM with CCRF-CEM leukemia; 0.229 µM with DU-145 prostate; 0.0231 µM in the test with HOP-92 NSCLC; 0.183 µM in the test on HS 578T breast; 0.903 µM with KM12 colon. Also, the GI50 with MDA-MB-231 breast is 0.183 µM; in the test on RXF 393 renal, 0.177 µM; in the test on SK-MEL-28 melanoma, 2.19 µM; in the test on UO-31 renal it was 0.075 µM. Besides, the TGI in the test on CAKI-1 renal is 16.6 µM; in the test on CCRF-CEM leukemia, over 100 µM; with DU-145 prostate, 54.8 µM; with HOP-92 NSCLC, 0.066 µM; with HS 578T breast, over 100 µM; with KM12 colon, over 100 µM. Further, the TGI in the test with MDA-MB-231 breast was over 100 µM; with RXF 393 renal, 32.7 µM; with SK-MEL-28 melanoma it was over 100 µM; with UO-31 renal it was 13.5 µM.

Turning to `O=Nc1c(-c2c(O)[nH]c3ncccc23)[nH]c2ccccc12`, the GI50 was 1.9 µM with CAKI-1 renal; 5.07 µM in the test with CCRF-CEM leukemia; over 23.9 µM in the test on DU-145 prostate; 2.71 µM with HS 578T breast; 1.32 µM in the test on KM12 colon; 16 µM with MDA-MB-231 breast. Besides, the GI50 in the test with RXF 393 renal was over 100 µM; with SK-MEL-28 melanoma, over 57.3 µM; in the test on UO-31 renal it was 1.64 µM. The TGI in the test on CAKI-1 renal, with CCRF-CEM leukemia, with DU-145 prostate, in the test on HOP-92 NSCLC, with HS 578T breast and in the test with KM12 colon was over 100 µM each time. Besides, the TGI in the test with MDA-MB-231 breast, in the test on RXF 393 renal, in the test with SK-MEL-28 melanoma and in the test on UO-31 renal was over 100 µM each time.
